Read-outs that look alike come from different tables or passages of the source.
Legend:
Escherichia coli = assay: Germicidal suspension assay, E. coli; type: cell-based; settings: for % survival at 1 min: 37° C.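 As to all read-outs here: surviving cells were scored as colonies on nutrient agar after 24 h at 37° C, survival given as percent of untreated controls.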
Procedure: E. coli cells from an overnight Trypticase soy nutrient agar (TSA) were resuspended to a density measured as an absorbance of 1.0 at 600 nm in sterile ddH2 O. The reaction of the cells with each of the bactericidal test formulations analyzed was started by addition of 30 μl of cells to 970 μl of test formulation. The reaction mixture was incubated at 37° C for at least 1 minute and then centrifuged in a microfuge for 1 minute. The cell pellet was washed by resuspension in 1 ml of neutralization buffer. (The neutralization buffer: 50 mM Tris-HCl, pH 7.0, 5 mM MgSO4, 20 mM CaCl2, 0.1 M NaCl and 0.1% gelatin was prepared by first making Tris buffer and adjusting the pH. The salts and gelatin were then added and the solution stirred with heat until the solution was clear. The solution was then autoclaved for 20 min. The neutralization buffer was used without dilution.) The cells were centrifuged in a microfuge for 1 minute and resuspended in 1 ml of neutralization buffer. The viable count was determined by spreading 100 μl of bacterial suspension and serial dilutions thereof in neutralization buffer on nutrient agar and scoring surviving colonies after 24 h at 37° C. Percent survival relative to untreated controls was calculated from the scored values.

E. coli strain ATCC8739 = assay: Nisin-citrate agar growth inhibition assay; type: cell-based, Escherichia coli
Procedure: The nisin-citrate agar assay is performed as follows. E. coli is resuspended to an optical density of 1.0 at A600. A 100 μl sample of the bacterial suspension is spread uniformly on Trypticase Soy nutrient agar (TSA) supplemented with various concentrations of citrate (e.g. 0.1%, 0.3%, 1.0%, 3.0%) and incubated for 1 hour at 37° C. A nisin stock solution and serial dilutions thereof in 0.1% bovine serum albumin (BSA), are prepared and 5 μl are taken from each and deposited onto the growing bacterial lawn. The TSA plates are then incubated for 24 hours at 37° C. After 24 hours at 37° C., E. coli grown on TSA supplemented with citrate form a confluent lawn. […] The effectiveness of nisin against the gram negative bacteria can be assessed from determining the minimum amount of nisin required to produce a clear zone of growth inhibition. As the concentration of citrate in the nutrient agar is increased, less nisin is required to inhibit the growth of E. coli, as is illustrated by the data shown in Table 6.

[1] = 0.1% w/v acetate pH 3.5, nisin 100 μg/ml and/or EDTA 1.0 mM where present, initial 2 × 10^7 cfu/ml
[2] = 0.1% w/v lactate pH 3.5, nisin 100 μg/ml and/or EDTA 1.0 mM where present, initial 5 × 10^7 cfu/ml
[3] = 0.1% w/v succinate pH 3.5, nisin 100 μg/ml and/or EDTA 1.0 mM where present, initial 3.4 × 10^6 cfu/ml
[4] = 0.3% w/v acetate pH 3.5, nisin 100 μg/ml and/or EDTA 1.0 mM where present, initial 2 × 10^7 cfu/ml
[5] = 0.3% w/v lactate pH 3.5, nisin 100 μg/ml and/or EDTA 1.0 mM where present, initial 5 × 10^7 cfu/ml
[6] = 0.3% w/v succinate pH 3.5, nisin 100 μg/ml and/or EDTA 1.0 mM where present, initial 3.4 × 10^6 cfu/ml
[7] = 1.0% w/v acetate pH 3.5, nisin 100 μg/ml and/or EDTA 1.0 mM where present, initial 2 × 10^7 cfu/ml
[8] = 1.0% w/v lactate pH 3.5, nisin 100 μg/ml and/or EDTA 1.0 mM where present, initial 5 × 10^7 cfu/ml
[9] = 1.0% w/v succinate pH 3.5, nisin 100 μg/ml and/or EDTA 1.0 mM where present, initial 3.4 × 10^6 cfu/ml
[10] = 3.0% w/v acetate pH 3.5, nisin 100 μg/ml and/or EDTA 1.0 mM where present, initial 2 × 10^7 cfu/ml
[11] = 3.0% w/v lactate pH 3.5, nisin 100 μg/ml and/or EDTA 1.0 mM where present, initial 5 × 10^7 cfu/ml
[12] = 3.0% w/v succinate pH 3.5, nisin 100 μg/ml and/or EDTA 1.0 mM where present, initial 3.4 × 10^6 cfu/ml
[13] = pH 2.0, 20 mM Na acetate buffer, nisin 100 μg/ml and/or EDTA 1.0 mM, initial 4 × 10^7 cfu/ml
[14] = pH 3.0, 20 mM Na acetate buffer, nisin 100 μg/ml and/or EDTA 1.0 mM, initial 4 × 10^7 cfu/ml

O=C(O)CN(CCN(CC(=O)O)CC(=O)O)CC(=O)O [EDTA]
% survival at 5 min (Helicobacter pylori; strain ATCC43504, EDTA 1.0 mM, nisin 100 μg/ml where present, pH 2.5, first of two experiments (initial 8.6 × 10^4 cfu/ml)): 0.023%
% survival at 5 min (Helicobacter pylori; strain ATCC43504, EDTA 1.0 mM, nisin 100 μg/ml where present, pH 2.5, second of two experiments (initial 9.82 × 10^5 cfu/ml)): 0.013%
% survival at 5 min (Helicobacter pylori; strain ATCC43504, EDTA 1.0 mM, nisin 100 μg/ml where present, pH 3.0, first of two experiments (initial 8.6 × 10^4 cfu/ml)): < 0.021%
% survival at 5 min (Helicobacter pylori; strain ATCC43504, EDTA 1.0 mM, nisin 100 μg/ml where present, pH 3.0, second of two experiments (initial 9.82 × 10^5 cfu/ml)): < 0.001%
% survival at 5 min (Helicobacter pylori; strain ATCC43504, EDTA 1.0 mM, nisin 100 μg/ml where present, pH 3.5, first of two experiments (initial 8.6 × 10^4 cfu/ml)): 94.2%
% survival at 5 min (Helicobacter pylori; strain ATCC43504, EDTA 1.0 mM, nisin 100 μg/ml where present, pH 3.5, second of two experiments (initial 9.82 × 10^5 cfu/ml)): 0.015%
% survival at 5 min (Helicobacter pylori; strain ATCC43504, EDTA 1.0 mM, nisin 100 μg/ml where present, pH 4.0, first of two experiments (initial 8.6 × 10^4 cfu/ml)): 11.6%
% survival at 5 min (Helicobacter pylori; strain ATCC43504, EDTA 1.0 mM, nisin 100 μg/ml where present, pH 4.0, second of two experiments (initial 9.82 × 10^5 cfu/ml)): 16.5%
% survival at 5 min (Helicobacter pylori; strain ATCC43504, EDTA 1.0 mM, nisin 100 μg/ml where present, pH 5.0, first of two experiments (initial 8.6 × 10^4 cfu/ml)): 10.0%
% survival at 5 min (Helicobacter pylori; strain ATCC43504, EDTA 1.0 mM, nisin 100 μg/ml where present, pH 5.0, second of two experiments (initial 9.82 × 10^5 cfu/ml)): 100%
% survival at 5 min (Helicobacter pylori; strain ATCC43526, pH 7.0, EDTA 1.0 mM, nisin 100 μg/ml where present, initial 3.40 × 10^4 cfu/ml): 94.1%
% survival at 5 min (Helicobacter pylori; strain ATCC43526, pH 7.0, EDTA 10 mM, nisin 100 μg/ml where present, initial 3.40 × 10^4 cfu/ml): 21.0%
% survival at 5 min (Helicobacter pylori; strain ATCC43526, pH 7.0, EDTA 100 mM, nisin 100 μg/ml where present, initial 3.40 × 10^4 cfu/ml): 1.62%
% survival at 5 min (Helicobacter pylori; strain ATCC43579, pH 5.0, EDTA 1.0 mM, nisin 100 μg/ml where present, initial 2.04 × 10^5 cfu/ml): 13.63%
% survival at 5 min (Helicobacter pylori; strain ATCC43579, pH 5.0, EDTA 10 mM, nisin 100 μg/ml where present, initial 2.04 × 10^5 cfu/ml): 8.82%
% survival at 5 min (Helicobacter pylori; strain ATCC43579, pH 5.0, EDTA 100 mM, nisin 100 μg/ml where present, initial 2.04 × 10^5 cfu/ml): 0.43%
% survival at 1 min (Escherichia coli; [1]): 40%
% survival at 1 min (Escherichia coli; [2]): 5.1%
% survival at 1 min (Escherichia coli; [3]): 56.8%
% survival at 1 min (Escherichia coli; [4]): 25%
% survival at 1 min (Escherichia coli; [5]): 0.46%
% survival at 1 min (Escherichia coli; [6]): 63.6%
% survival at 1 min (Escherichia coli; [7]): 25%
% survival at 1 min (Escherichia coli; [8]): 0.91%
% survival at 1 min (Escherichia coli; [9]): 46.2%
% survival at 1 min (Escherichia coli; [10]): 10.7%
% survival at 1 min (Escherichia coli; [11]): 1.58%
% survival at 1 min (Escherichia coli; [12]): 43.2%
survival of E. coli on exposure to the agent by itself (Escherichia coli): unaffected
% survival at 1 min (Escherichia coli; [13]): 0.07%
% survival at 1 min (Escherichia coli; [14]): 5.41%

nisin
Nisin NIC (nominal inhibitory concentration of nisin minimally required to prevent growth) (E. coli strain ATCC8739; Trypticase Soy Agar supplemented with 0.1% citrate): 370 µg/mL
Nisin NIC (nominal inhibitory concentration of nisin minimally required to prevent growth) (E. coli strain ATCC8739; Trypticase Soy Agar supplemented with 0.3% citrate): 123 µg/mL
Nisin NIC (nominal inhibitory concentration of nisin minimally required to prevent growth) (E. coli strain ATCC8739; Trypticase Soy Agar supplemented with 1.0% citrate): 13.7 µg/mL
Nisin NIC (nominal inhibitory concentration of nisin minimally required to prevent growth) (E. coli strain ATCC8739; Trypticase Soy Agar supplemented with 3.0% citrate): 0.06 µg/mL
Nisin NIC (nominal inhibitory concentration of nisin minimally required to prevent growth) (E. coli strain ATCC8739; Trypticase Soy Agar, 0% citrate): 3,333 μg/ml
% survival at 5 min (Helicobacter pylori; pH 7): 5.88
% survival at 5 min (Helicobacter pylori; strain ATCC43504, pH 5.0, citrate 0, nisin 100 μg/ml, second of two experiments (initial 3.26 × 10^5 cfu/ml)): 0.043%
% survival at 5 min (Helicobacter pylori; strain ATCC43504, pH 7.0, citrate 0, nisin 100 μg/ml, initial 9.62 × 10^4 cfu/ml): 2.08%
% survival at 5 min (Helicobacter pylori; strain ATCC43579, citrate 0, nisin 100 μg/ml, pH 5.0, average of 5 experiments): 0.30%
% survival at 5 min (Helicobacter pylori; strain ATCC43579, pH 5.0, citrate 0, nisin 100 μg/ml, 37° C., initial 1.04 × 10^4 cfu/ml): 9.62%
% survival at 5 min (Helicobacter pylori; strain ATCC43579, pH 5.0, nisin 10 μg/ml, citrate 0.1% where present, 37° C.): 1.31%
% survival at 5 min (Helicobacter pylori; strain ATCC43579, pH 5.0, nisin 30 μg/ml, citrate 0.1% where present, 37° C.): 0.39%
% survival at 5 min (Helicobacter pylori; strain ATCC43579, pH 5.0, nisin 100 μg/ml, citrate 0.1% where present, 37° C.): 0.085%
% survival at 5 min (Helicobacter pylori; strain ATCC43579, pH 5.0, nisin 300 μg/ml, citrate 0.1% where present, 37° C.): 0.0056%
% survival at 5 min (Helicobacter pylori; strain ATCC43579, pH 7.0, citrate 0, nisin 100 μg/ml, 37° C.): 0.78%
% survival at 1 min (Escherichia coli; [1]): 9.6%
% survival at 1 min (Escherichia coli; [2]): 4.4%
% survival at 1 min (Escherichia coli; [3]): 18.3%
% survival at 1 min (Escherichia coli; [4]): 70%
% survival at 1 min (Escherichia coli; [5]): 0.24%
% survival at 1 min (Escherichia coli; [6]): 66.6%
% survival at 1 min (Escherichia coli; [7]): 100%
% survival at 1 min (Escherichia coli; [8]): 17.8%
% survival at 1 min (Escherichia coli; [9]): 83.4%
% survival at 1 min (Escherichia coli; [10]): 100%
% survival at 1 min (Escherichia coli; [11]): 26.7%
% survival at 1 min (Escherichia coli; [12]): 28.4%
survival of E. coli on exposure to the agent by itself (Escherichia coli): unaffected
% survival at 1 min (Escherichia coli; [13]): 0.28%
% survival at 1 min (Escherichia coli; pH 2.5, 20 mM Na acetate buffer, nisin 100 μg/ml and/or EDTA 1.0 mM, initial 4 × 10^7 cfu/ml): 3.37%
% survival at 1 min (Escherichia coli; [14]): 4.43%
% survival at 1 min (Escherichia coli; pH 3.5, 20 mM Na acetate buffer, nisin 100 μg/ml and/or EDTA 1.0 mM, initial 4 × 10^7 cfu/ml): 100%
% survival at 1 min (Escherichia coli; pH 4.0, 20 mM Na acetate buffer, nisin 100 μg/ml and/or EDTA 1.0 mM, initial 4 × 10^7 cfu/ml): 100%

— patent US5304540A, “Pharmaceutical bacteriocin compositions and methods for using the same” (Applied Microbiology, Inc., priority 1993, dated 1994)
